In ChEMBL document CHEMBL4477199, “Design and synthesis of novel bicalutamide and enzalutamide derivatives as antiproliferative agents for the treatment of prostate cancer” (Eur J Med Chem, 2016):

Columns and labels:
[1] = tested on: CWR22R; assay: Antiproliferative activity against human 22Rv1 cells after 96 hrs by propidium iodide staining based fluorescence 2D monolayer assay; format: functional, cell-based; conditions: 22Rv1, 96 h
[2] = tested on: DU-145; assay: Antiproliferative activity against human DU145 cells after 96 hrs by propidium iodide staining based fluorescence 2D monolayer assay; format: functional, cell-based; conditions: DU-145, 96 h
[3] = tested on: LNCaP; assay: Antiproliferative activity against human LNCAP cells after 96 hrs by propidium iodide staining based fluorescence 2D monolayer assay; format: functional, cell-based
[4] = tested on: VCaP; assay: Antiproliferative activity against human VCaP cells after 96 hrs by propidium iodide staining based fluorescence 2D monolayer assay; format: functional, cell-based
[5] = target: T1, Androgen receptor (Rattus norvegicus) (UniProt P15207); assay: (§1) Antagonist activity at rat androgen receptor fused with DNA-binding domain of GAL4 expressed in AR-UAS-bla GripTite 293 cells assessed as inhibition of R1881-induced receptor activation at 1 uM preincubated for 30 mins followed by R1881 addition measured after 16 to 24 hrs by betalactamase reporter gene assay relative to control; format: cell-based
T1 sequence (whole entry): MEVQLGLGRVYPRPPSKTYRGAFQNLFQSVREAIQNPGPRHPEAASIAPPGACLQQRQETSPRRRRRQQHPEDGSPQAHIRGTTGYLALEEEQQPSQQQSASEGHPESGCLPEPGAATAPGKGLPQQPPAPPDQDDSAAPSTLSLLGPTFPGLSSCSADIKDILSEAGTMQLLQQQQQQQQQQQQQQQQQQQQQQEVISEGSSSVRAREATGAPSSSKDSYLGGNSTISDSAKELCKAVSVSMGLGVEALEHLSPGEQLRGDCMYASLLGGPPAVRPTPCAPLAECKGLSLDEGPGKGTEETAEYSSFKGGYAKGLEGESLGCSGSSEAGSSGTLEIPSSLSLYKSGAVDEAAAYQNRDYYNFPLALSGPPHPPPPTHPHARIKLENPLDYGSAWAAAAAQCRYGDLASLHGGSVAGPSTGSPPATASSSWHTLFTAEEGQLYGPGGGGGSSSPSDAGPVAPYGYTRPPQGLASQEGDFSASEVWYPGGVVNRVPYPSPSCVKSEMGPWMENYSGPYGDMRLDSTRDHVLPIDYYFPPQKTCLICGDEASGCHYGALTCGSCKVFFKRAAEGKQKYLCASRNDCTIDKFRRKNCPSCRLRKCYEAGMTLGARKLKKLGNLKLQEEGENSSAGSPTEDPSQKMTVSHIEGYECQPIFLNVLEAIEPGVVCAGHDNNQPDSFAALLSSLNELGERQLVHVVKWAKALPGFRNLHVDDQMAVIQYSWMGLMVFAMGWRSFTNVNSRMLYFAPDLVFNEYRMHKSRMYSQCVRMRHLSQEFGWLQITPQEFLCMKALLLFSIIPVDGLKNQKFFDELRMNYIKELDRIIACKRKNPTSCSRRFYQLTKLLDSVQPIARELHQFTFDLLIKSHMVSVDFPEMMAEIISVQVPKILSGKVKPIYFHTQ

[6] = target: T1, Androgen receptor (Rattus norvegicus); assay: as §1, with “activation” for “activation at 1 uM”, “assay” for “assay relative to control”; format: cell-based
[7] = target: T2, Androgen receptor (Rattus norvegicus, UniProt P15207); assay: as above; format: cell-based
T2 sequence (P15207 whole entry): T1 sequence (whole entry)

[8] = 96 h
Description: Solubility in RPMI1640 culture medium at <30 uM incubated for 4 days by microscopic analysis

[9] = 33000 µM
Description: Solubility in 100% DMSO at 33 mM at -20 degC

[10] = tested on: CWR22R; assay: Potency index, ratio of bicalutamide IC50 to compound IC50 for human 22Rv1 cells; format: functional
[11] = tested on: DU-145; assay: Potency index, ratio of bicalutamide IC50 to compound IC50 for human DU145 cells; format: functional
[12] = tested on: LNCaP; assay: Potency index, ratio of bicalutamide IC50 to compound IC50 for human LNCAP cells; format: functional
[13] = tested on: VCaP; assay: Potency index, ratio of bicalutamide IC50 to compound IC50 for human VCaP cells; format: functional
[14] = tested on: CWR22R; assay: Potency index, ratio of (R)-bicalutamide IC50 to compound IC50 for human 22Rv1 cells; format: functional
[15] = tested on: DU-145; assay: Potency index, ratio of (R)-bicalutamide IC50 to compound IC50 for human DU145 cells; format: functional
[16] = tested on: LNCaP; assay: Potency index, ratio of (R)-bicalutamide IC50 to compound IC50 for human LNCAP cells; format: functional
[17] = tested on: VCaP; assay: Potency index, ratio of (R)-bicalutamide IC50 to compound IC50 for human VCaP cells; format: functional
[18] = Metabolic stability in human liver microsomes at 3 uM preincubated with compound followed by NADPH addition measured after 5 to 45 mins by LC-MS/MS analysis; format: ADME, Microsome
[19] = Apparent permeability from apical to basolateral side in human Caco2 cells at 10 uM incubated for 120 mins by LC-MS/MS analysis; conditions: Caco-2
[20] = Apparent permeability from basolateral to apical side in human Caco2 cells at 10 uM incubated for 120 mins by LC-MS/MS analysis; conditions: Caco-2
[21] = Efflux ratio of apparent permeability from basolateral to apical side over apical to basolateral side in human Caco2 cells at 10 uM incubated for 120 mins by LC-MS/MS analysis; conditions: Caco-2
[22] = tested on: HepG2; assay: Cytotoxicity against human HepG2 cells assessed as reduction in cell viability after 72 hrs by MTT assay; format: functional, cell-based; conditions: HepG2, 72 h; for minimal effective concentration: read-out: MEC
[23] = tested on: HepG2; assay: Cytotoxicity against human HepG2 cells assessed as reduction in cell viability at 100 uM after 72 hrs by MTT assay relative to control; format: functional
[24] = Half life in human liver microsomes at 3 uM preincubated with compound followed by NADPH addition by LC-MS/MS analysis; conditions: microsomes
[25] = in vitro; conditions: human, microsomes
[26] = tested on: LNCaP; assay: Potency index, ratio of enzalutamide IC50 to compound IC50 for human LNCAP cells; format: functional
[27] = tested on: LNCaP; assay: Antiproliferative activity against human LNCAP cells assessed as relative inhibition after 96 hrs by propidium iodide staining based fluorescence 2D monolayer assay; format: functional, cell-based
[28] = tested on: DU-145; assay: Antiproliferative activity against human DU145 cells assessed as relative inhibition after 96 hrs by propidium iodide staining based fluorescence 2D monolayer assay; format: functional, cell-based; conditions: DU-145, 96 h
[29] = tested on: CWR22R; assay: Antiproliferative activity against human 22Rv1 cells assessed as relative inhibition after 96 hrs by propidium iodide staining based fluorescence 2D monolayer assay; format: functional, cell-based; conditions: 22Rv1, 96 h
[30] = tested on: VCaP; assay: Antiproliferative activity against human VCaP cells assessed as relative inhibition after 96 hrs by propidium iodide staining based fluorescence 2D monolayer assay; format: functional, cell-based

`C[C@](O)(CS(=O)(=O)c1ccc(OC(F)(F)F)cc1)C(=O)Nc1ccc(C#N)c(C(F)(F)F)c1` showed an IC50 [1] of 18.8 µM, an IC50 [2] of 31.6 µM and an IC50 [3] of 18.9 µM. The IC50 [4] was 31.2 µM, the inhibition [5] was 53 to 69% and the inhibition [6] was “Dose-dependent effect”. The IC50 [7] was 0.777 µM, the solubility [8] was “Soluble” and the solubility [9] was “Soluble”.

`C[C@](O)(CS(=O)(=O)c1ccc(C(F)(F)F)cc1)C(=O)Nc1ccc(C#N)c(C(F)(F)F)c1` gave an IC50 [1] of 20.2 µM, an IC50 [2] of 26.8 µM and an IC50 [3] of 17.5 µM. The IC50 [4] was 31.4 µM, the “Ratio IC50” value [10] was “<=2” and the “Ratio IC50” value [11] was “<=2”. The “Ratio IC50” value [12] was “<=2”, the “Ratio IC50” value [13] was “<=2” and the “Ratio IC50” value [14] was 2. The “Ratio IC50” value [15] was 2, the “Ratio IC50” value [16] was 2 and the “Ratio IC50” value [17] was 2. The inhibition [6] was “Dose-dependent effect”, the IC50 [7] was 0.775 µM and the solubility [8] was “Soluble”. For the same molecule, the solubility [9] was “Soluble”.

With `C[C@](O)(COc1ccc(C#N)cc1)C(=O)Nc1ccc(C#N)c(C(F)(F)F)c1` [ENOBOSARM] the IC50 [1] was 24.8 µM, the IC50 [2] was 44.6 µM and the IC50 [4] was 24.5 µM. For the same molecule, the IC50 [7] was 0.0364 µM, the Stability [18] was “Stable” and the Papp A→B at 2 h, 10 µM [19] was 31.5 ×10⁻⁶ cm/s. It also gave a Papp B→A at 2 h, 10 µM [20] of 26.7 ×10⁻⁶ cm/s, an efflux ratio at 2 h, 10 µM [21] of 0.848 and an AC50 [22] of 32.8 µM. The minimal effective concentration [22] was 21.8 µM and the cell viability reduction [23] was 79%.

`CC(O)(CSc1ccccc1C(F)(F)F)C(=O)Nc1ccc([N+](=O)[O-])c(C(F)(F)F)c1` (stereo not drawn) gave an IC50 [1] of 4.6 µM, an IC50 [2] of 7.57 µM and an IC50 [3] of 4.78 µM. For the same molecule, the IC50 [4] was 4.45 µM, the inhibition [6] was “Dose-dependent effect” and the IC50 [7] was 0.28 µM. The half-life at 3 µM [24] was 3.39 min, the Papp A→B at 2 h, 10 µM [19] was 3.44 ×10⁻⁶ cm/s and the Papp B→A at 2 h, 10 µM [20] was 2.9 ×10⁻⁶ cm/s. For the same molecule, the efflux ratio at 2 h, 10 µM [21] was 0.843, the AC50 [22] was 2.73 µM and the minimal effective concentration [22] was 1.71 µM. For the same molecule, the cell viability reduction [23] was 98%, the solubility [8] was “Soluble” and the solubility [9] was “Soluble”. It also gave a microsomal CLint at 3 µM [25] of 409 µL/min/mg.

`CC(O)(COc1ccc(C(F)(F)F)cc1)C(=O)Nc1ccc(C#N)c(C(F)(F)F)c1` (stereo not drawn) gave an IC50 [1] of 6.91 µM, an IC50 [2] of 16.3 µM and an IC50 [3] of 6.45 µM. For the same molecule, the IC50 [4] was 9.65 µM, the Stability [18] was “Stable” and the Papp A→B at 2 h, 10 µM [19] was 5.09 ×10⁻⁶ cm/s. The Papp B→A at 2 h, 10 µM [20] was 4.8 ×10⁻⁶ cm/s, the efflux ratio at 2 h, 10 µM [21] was 0.943 and the AC50 [22] was 23.9 µM. For the same molecule, the minimal effective concentration [22] was 11.3 µM, the solubility [8] was “Soluble” and the solubility [9] was “Soluble”.

For `CC(O)(CS(=O)(=O)c1ccccc1C(F)(F)F)C(=O)Nc1ccc([N+](=O)[O-])c(C(F)(F)F)c1` (stereo not drawn), the IC50 [1] was 18.6 µM, the IC50 [2] was 37.5 µM and the IC50 [3] was 25.7 µM. The IC50 [4] was 27.6 µM, the inhibition [6] was “Dose-dependent effect” and the IC50 [7] was 0.811 µM. The Stability [18] was “Stable”, the Papp A→B at 2 h, 10 µM [19] was 13.3 ×10⁻⁶ cm/s and the Papp B→A at 2 h, 10 µM [20] was 17.2 ×10⁻⁶ cm/s. For the same molecule, the efflux ratio at 2 h, 10 µM [21] was 1.29, the AC50 [22] was 32.6 µM and the minimal effective concentration [22] was 22.7 µM. For the same molecule, the solubility [8] was “Soluble” and the solubility [9] was “Soluble”.

With `CC1(C)C(=O)N(c2ccc(C(F)(F)F)cc2)C(=O)N1c1ccc([N+](=O)[O-])c(C(F)(F)F)c1` the IC50 [1] was ≥ 100 µM, the IC70 [1] was > 100 µM and the IC50 [2] was ≥ 100 µM. The IC70 [2] was > 100 µM, the IC50 [3] was 2.12 µM and the IC70 [3] was 9.64 µM. The IC50 [4] was 73.1 µM, the IC70 [4] was > 100 µM and the “Ratio IC50” value [26] was “<=5”. For the same molecule, the inhibition [6] was “Dose-dependent effect”, the IC50 [7] was 0.0803 µM and the IC50 [27] was 1.64 µM. The IC70 [27] was 7.89 µM, the IC50 [28] was > 100 µM and the IC70 [28] was > 100 µM. For the same molecule, the IC50 [29] was 41.6 µM, the IC70 [29] was > 100 µM and the IC50 [30] was 0.053 µM. The IC70 [30] was 7.76 µM, the solubility [8] was “Soluble” and the solubility [9] was “Soluble”.

For `CC(O)(COc1ccc(C#N)c(F)c1)C(=O)Nc1ccc([N+](=O)[O-])c(C(F)(F)F)c1` (stereo not drawn), the IC50 [1] was 11.8 µM, the IC50 [2] was 16.4 µM and the IC50 [3] was 7.71 µM. The IC50 [4] was 12.4 µM, the inhibition [5] was 65% and the inhibition [6] was “Dose-dependent effect”. For the same molecule, the IC50 [7] was 0.0492 µM, the solubility [8] was “Soluble” and the solubility [9] was “Soluble”.
